Several values for one entry are separate records, joined by “and”; a condition that tells them apart may be missing. Equal values may be shown once. Where a SMILES comes first, the peptide text is derived from it. [ ]: non-standard residue; d: D form.
Columns and labels:
[1] = Prolyl amide cis/trans equilibrium of tetrapeptides by NMR in various solvents; assay type: physicochemical
Experimental: Conformational analysis of tetrapeptides 2-11 to 2-13 and 2-16 using NMR. […] The lower tendency of aggregation of glycosylated peptides has previously been reported (runkel et al., 1998). The NMR spectra of all tetrapeptides were measured at the same concentration (8 mM). Intramolecular hydrogen bonding was evaluated by temperature coefficient experiments in DMSO-d6 or H2O/D2O (9/1). Because exchangeable protons engaged in intramolecular hydrogen bonds are typically not influenced by strong hydrogen-bonding solvents (Kopple et al., 1969). The prolyl N-terminal geometry and turn structure were investigated by ROESY experiments (Misicka et al., 1998).
Solvent effects. In addition, the influence of different solvents on the geometry of prolyl N-terminus was studied (Table 14). […] In contrast, peptide 2-12 and reference peptide 2-16 display a solvent effect.

[2] = in CD2Cl2; cited from earlier work
[3] = Prolyl amide trans/cis ratio by 1H-NMR integration (peptide mimics 3-8); assay type: physicochemical; details: for Experimental distribution of cis conformers / Experimental distribution of trans conformers / Cis population of prolyl N-acetyl N′-methylamides: in D2O; for Experimental distribution of cis conformers / Experimental distribution of trans conformers: 1H-NMR integration; for Trans/cis ratio Kt/c / cis % isomer: in water, 500 MHz NMR at 25 °C; for Trans/cis ratio Kt/c: ±0.04; for cis % isomer / Cis population of prolyl N-acetyl N′-methylamides: ±3%
Experimental: For each compound 3-6, the ratio of trans/cis isomers was calculated by integrating and averaging as many well-resolved proton signals as possible in the ^1H-NMR spectra (Table 2) (taylor et al., 2003).
The cis population of peptide mimics 7 and 8 are presented in Table 3 together with previously published data for proline analog 9 (Beausoleil and Lubell, 1996), 5-methylproline analogs 10 and 11 (Delaney and Madison, 1982) and 5-tent-butylproline analogs 12 and 13 (Beausoleil and Lubell, 1996).
(§1) Thermodynamics. The equilibrium constants for the interconversion of the cis and trans isomers of 3-6 were determined by measuring the peak area of the 1H resonance for the two isomers. Peak areas were measured with the program Spinworks 2.5. Experiments were conducted at 298-360 K. Equilibrium constants (Kt/c=trans/cis ratios) were calculated directly from the peak areas.

[4] = Kinetics of prolyl amide cis/trans isomerization by 1H-NMR inversion-magnetization transfer, Eyring plots; assay type: physicochemical; details: for Free energy of activation ΔG‡ cis to trans / Free energy of activation ΔG‡ trans to cis: at 298K, D2O; for Rate constant ktc (trans to cis): calculated from kct and Kt/c
Experimental: Kinetics of cis-trans prolyl amide bond isomerization in peptide mimics 3-6. The kinetics of cis/trans isomerization for compounds 3-6 were determined by ^1H-NMR spectroscopy inversion-magnetization transfer experiments (Perrin and Dwyer, 1990; Reimer et al., 1998) in D2O (Table 4). Because the rates for cis/trans isomerization are extremely slow in protic solvents, the inventors performed these experiments at elevated temperatures (Stein, 1993). At 83° C., the trans-to-cis rate constants of isomerizations (ktc) follows the order 4<5≈6<3. A 200-fold rate difference is observed for diastereomeric amides 3 and 4.
The effects of temperature on kct and ktc were analyzed by Eyring plots (FIG. 6) (Eyring, 1935). The values for ΔH^‡ and ΔS^‡ (Table 5) were calculated from linear least squares fits of the data in these plots (Eyring, 1935). […] However, the activation enthalpy is partially compensated by a higher activation entropy.
Inversion-magnetization transfer NMR experiments were performed on Bruker AMX500 spectrometer equipped with selective excitation units, and ^1H and broadband heteronuclear probes. Samples of 3-6 were prepared at a concentration of 0.01 M in D2O. The rate of prolyl peptide bond isomerization can not be detected by this method at room temperature. Experiments were therefore conducted at elevated temperature at 356 K. Temperature settings of the spectrometer were calibrated to within 1° C. by reference to a glycol standard.

[5] = Thermodynamics of isomerization, Kt/c versus temperature, Van't Hoff plots; assay type: physicochemical; details: D2O; for ΔG° (298K) of isomerization: in kcal/mol; for ΔH° of isomerization / ΔS° of isomerization: Van't Hoff plots
Experimental: Thermodynamics The effects of temperature on the values Kt/c=(kct/ktc) for each compound were measured directly by NMR spectroscopy over the temperature range 25-93° C. The resulting data were analyzed by Van't Hoff plots (FIG. 7). […] In this case the major cis isomer becomes increasingly favored as the temperature decreases. Values for ΔH^o and ΔS^o were calculated from linear least-squares fits of these plots (Table 6).
as §1

[6] = Cis population and equilibrium constant Kc/t of GlcTProLysC peptide mimics by 1H NMR, pH effect; assay type: physicochemical; details: HCl salt; for Equilibrium constant Kc/t / Cis population: in D2O; for Equilibrium constant Kc/t: ±0.04; for Cis population: ±3%; for Kc/t: D2O
Experimental: The equilibrium constants Kc/t for compounds 3-22 to 3-25 are shown in Table 15 and were determined by integrating and averaging as many distinct proton signals as possible for both the major and minor isomers in the ^1H NMR spectra (Taylor et al., 2003). […] It appears that the stereochemistry at C-5′ has a profound effect on the equilibrium of isomerization. Also, the cis prolyl amide population in esters 3-22 and 3-23, was generally lower than N′-methylamides 3-24 and 3-25. Taylor and co-workers have proposed that the trans conformation of esters is stabilized relative to amides as a result of increased electron donation from the oxygen lone pair of the N-terminal amide carbonyl group to the antibonding orbital of the prolyl C-terminal carbonyl group (FIG. 20) (Taylor et al., 2003).
Effect of pH. Since compound 3-22 to 3-25 have an ionizable amino group, the inventors were interested to study the influence of the ionization state on Kt/c. […] The inventors selected three buffer ranges: pH=2.6, 7.4 and 12.4, to examine the pH effect on the isomerization of 3-24 and 3-25 (Table 16).
Measurement of equilibrium constant: The calculation was based on the integration of well-resolved peaks of the γ-protons, N-terminal methyl group and α-proton in ^1H NMR.

CC(=O)N[C@@H](CC(C)C)C(=O)N[C@H](Cc1ccccc1)C(=O)N1CCC[C@H]1C(=O)N[C@H](C(=O)N(C)C)C(C)C [Compound 2-16, Ac-Leu-D-Phe-Pro-Val-NMe2] (Ac-L[dF]PV-NMe2)
Equilibrium constant Kt/c ([1]; CD2Cl2, 500 MHz NMR at 25° C.): 19.00 | Equilibrium constant Kt/c ([1]; CD3OD, 500 MHz NMR at 25° C.): 3.17 | Equilibrium constant Kt/c ([1]; DMSO-d6, 500 MHz NMR at 25° C.): 1.32 | Concentration at which peptide aggregated [2]: ≥ 10000 µM

COC(=O)C1N(C(C)=O)C(CO)CC12OC(CO)C(O)C(O)C2O [Compound 3, (1S)-2,3,4,6-Tetrahydroxy-1′-N-acetyl-5′(S)-hydroxymethylene-spiro[1,5-anhydro-D-glucitol-1,3′-L-prolinemethyl ester]]
Experimental distribution of cis conformers [3]: 23±3% | Experimental distribution of trans conformers [3]: 77 ± 3% | Trans/cis ratio Kt/c [3]: 3.35 | cis % isomer [3]: 23% | Rate constant kct (cis to trans) ([4]; D2O at 83 °C): 0.18 ± 0.01 s⁻¹ | Activation enthalpy ΔH‡ cis to trans ([4]; Eyring plots in D2O): 26.1 kcal/mol | Activation enthalpy ΔH‡ trans to cis ([4]; Eyring plots in D2O): 26.4 kcal/mol | Activation entropy ΔS‡ cis to trans ([4]; Eyring plots in D2O): 11.1 cal/mol.K | Activation entropy ΔS‡ trans to cis ([4]; Eyring plots in D2O): 10.2 cal/mol.K | Increase in activation enthalpy compared to compounds 4-6 ([4]; Eyring plots in D2O): 3.9 to 6.8 kcal/mol | Free energy of activation ΔG‡ cis to trans [4]: 22.8 kcal/mol | Free energy of activation ΔG‡ trans to cis [4]: 23.4 kcal/mol | Rate constant ktc (trans to cis) ([4]; D2O at 83 °C): 0.08 ± 0.004 s⁻¹ | ΔG° (298K) of isomerization [5]: −0.80 ± 0.13 | ΔH° of isomerization [5]: -1.67 ± 0.06 kcal/mol | ΔS° of isomerization [5]: −2.93 ± 0.20 cal/mol•K

COC(=O)C1N(C(C)=O)C(CO)CC12OC(CN)C(O)C(O)C2O.Cl [Compound 3-22, (1S)-6-Amino-6-deoxy-1′-N-acetyl-5′(R)-hydroxymethylene-spiro[1,5-anhydro-D-glucitol-1,3′-L-prolinemethyl ester] HCl salt]
Equilibrium constant Kc/t [6]: 1.22 | Cis population [6]: 55%

COC(=O)C1N(C(C)=O)C(CO)CC12OC(CN)C(O)C(O)C2O.Cl [Compound 3-23, (1S)-6-Amino-6-deoxy-1′-N-acetyl-5′(S)-hydroxymethylene-spiro[1,5-anhydro-D-glucitol-1,3′-L-prolinemethyl ester] HCl salt]
Equilibrium constant Kc/t [6]: 0.23 | Cis population [6]: 19%

CNC(=O)C1N(C(C)=O)C(CO)CC12OC(CN)C(O)C(O)C2O.Cl [Compound 3-24, (1S)-6-Amino-6-deoxy-1′-N-acetyl-5′(R)-hydroxymethylene-spiro[1,5-anhydro-D-glucitol-1,3′-L-prolinemethyl amide] HCl salt]
Kc/t ([6]; pD 2.6, ±0.04): 3.03 | Kc/t ([6]; pD 7.4, ±0.04): 3.03 | Kc/t ([6]; pD 12.4, ±0.04): 2.70 | Equilibrium constant Kc/t [6]: 3.03 | Cis population [6]: 75%

CNC(=O)C1N(C(C)=O)C(CO)CC12OC(CN)C(O)C(O)C2O.Cl [Compound 3-25, (1S)-6-Amino-6-deoxy-1′-N-acetyl-5′(S)-hydroxymethylene-spiro[1,5-anhydro-D-glucitol-1,3′-L-prolinemethyl amide] HCl salt]
Kc/t ([6]; pD 2.6, ±0.04): 0.61 | Kc/t ([6]; pD 7.4, ±0.04): 0.56 | Kc/t ([6]; pD 12.4, ±0.04): 0.61 | Equilibrium constant Kc/t [6]: 0.56 | Cis population [6]: 36%

COC(=O)C1N(C(C)=O)C(CO)CC12OC(CO)C(O)C(O)C2O [Compound 4, (1S)-2,3,4,6-Tetrahydroxy-1′-N-acetyl-5′(R)-hydroxymethylene-spiro[1,5-anhydro-D-glucitol-1,3′-L-prolinemethyl ester]]
Experimental distribution of cis conformers [3]: 53±3% | Experimental distribution of trans conformers [3]: 47 ± 3% | Trans/cis ratio Kt/c [3]: 0.88 | cis % isomer [3]: 53% | Rate acceleration for kct compared to parent compounds 5 and 6 ([4]; D2O at 83 °C): ~6 fold | Rate acceleration for ktc compared to parent compounds 5 and 6 ([4]; D2O at 83 °C): ~20 fold | Rate constant kct (cis to trans) ([4]; D2O at 83 °C): 16.19 ± 1.19 s⁻¹ | Activation enthalpy ΔH‡ cis to trans ([4]; Eyring plots in D2O): 19.8 kcal/mol | Activation enthalpy ΔH‡ trans to cis ([4]; Eyring plots in D2O): 19.6 kcal/mol | Activation entropy ΔS‡ cis to trans ([4]; Eyring plots in D2O): 2.2 cal/mol.K | Activation entropy ΔS‡ trans to cis ([4]; Eyring plots in D2O): 1.9 cal/mol.K | Free energy of activation ΔG‡ cis to trans [4]: 19.1 kcal/mol | Free energy of activation ΔG‡ trans to cis [4]: 19.0 kcal/mol | Rate constant ktc (trans to cis) ([4]; D2O at 83 °C): 19.82 ± 1.45 s⁻¹ | ΔG° (298K) of isomerization [5]: 0.19 ± 0.11 | ΔH° of isomerization [5]: 0.50 ± 0.06 kcal/mol | ΔS° of isomerization [5]: 1.05 ± 0.16 cal/mol•K

COC(=O)[C@@H]1[C@@H](O)CCN1C(C)=O [Compound 5, N-acetyl-3(S)-hydroxy-L-proline methyl ester, reference compound]
Trans/cis ratio Kt/c [3]: 4.88 | cis % isomer [3]: 17% | Rate constant kct (cis to trans) ([4]; D2O at 83 °C): 2.63 ± 0.28 s⁻¹ | Activation enthalpy ΔH‡ cis to trans ([4]; Eyring plots in D2O): 21.6 kcal/mol | Activation enthalpy ΔH‡ trans to cis ([4]; Eyring plots in D2O): 21.5 kcal/mol | Activation entropy ΔS‡ cis to trans ([4]; Eyring plots in D2O): 3.6 cal/mol.K | Activation entropy ΔS‡ trans to cis ([4]; Eyring plots in D2O): 1.6 cal/mol.K | Free energy of activation ΔG‡ cis to trans [4]: 20.5 kcal/mol | Free energy of activation ΔG‡ trans to cis [4]: 21.1 kcal/mol | Rate constant ktc (trans to cis) ([4]; D2O at 83 °C): 1.02 ± 0.09 s⁻¹ | ΔG° (298K) of isomerization [5]: −0.95 ± 0.05 | ΔH° of isomerization [5]: -1.09 ± 0.03 kcal/mol | ΔS° of isomerization [5]: −0.48 ± 0.08 cal/mol•K

COC(=O)[C@@H]1CCCN1C(C)=O [Compound 6, N-acetyl-L-proline methyl ester, reference compound]
Trans/cis ratio Kt/c [3]: 6.14 | cis % isomer [3]: 14% | Rate constant kct (cis to trans) ([4]; D2O at 83 °C): 2.95 ± 0.12 s⁻¹ | Activation enthalpy ΔH‡ cis to trans ([4]; Eyring plots in D2O): 21.9 kcal/mol | Activation enthalpy ΔH‡ trans to cis ([4]; Eyring plots in D2O): 22.5 kcal/mol | Activation entropy ΔS‡ cis to trans ([4]; Eyring plots in D2O): 4.8 cal/mol.K | Activation entropy ΔS‡ trans to cis ([4]; Eyring plots in D2O): 3.9 cal/mol.K | Free energy of activation ΔG‡ cis to trans [4]: 20.5 kcal/mol | Free energy of activation ΔG‡ trans to cis [4]: 21.4 kcal/mol | Rate constant ktc (trans to cis) ([4]; D2O at 83 °C): 0.82 ± 0.04 s⁻¹ | ΔG° (298K) of isomerization [5]: −1.01 ± 0.08 | ΔH° of isomerization [5]: -1.21 ± 0.04 kcal/mol | ΔS° of isomerization [5]: −0.71 ± 0.12 cal/mol•K

CNC(=O)C1N(C(C)=O)C(CO)CC12OC(CO)C(O)C(O)C2O [Compound 7, (1S)-2,3,4,6-Tetrahydroxy-1′-N-acetyl-5′(S)-hydroxymethylene-spiro[1,5-anhydro-D-glucitol-1,3′-L-prolinemethylamide]]
Cis population of prolyl N-acetyl N′-methylamides [3]: 38% and 38±3%

CNC(=O)C1N(C(C)=O)C(CO)CC12OC(CO)C(O)C(O)C2O [Compound 8, (1S)-2,3,4,6-tetrahydroxy-1′-N-acetyl-5′(R)-hydroxymethylene-spiro[1,5-anhydro-D-glucitol-1,3′-L-prolinemethylamide]]
Cis population of prolyl N-acetyl N′-methylamides [3]: 74% and 74±3%

— US20100256333A1, “Peptide-Based Beta Turn Mimetics” (UNIVERSITY OF MANITOBA, priority 2009, published 2010)
